For 86 molecules, melting point results are on record in a melting point compilation (Tetko et al.).

As a reminder, the melting point is the temperature of the solid-liquid transition.

Molecule `COc1ccccc1NC(=O)CC(=O)Nc1ccccc1OC` yielded a melting point of 154 to 156 °C.
For the molecule `CNc1ccnc(C(N)=O)c1`, the melting point was in the range of 157 to 159 °C.
In the case of `C=CCNS(=O)(=O)Cc1ccc(N)cc1` it was 124 to 126 °C; in that of `CC(C)OCc1ccc(C(=O)O)cc1`, 114 to 116 °C; in that of `Cc1ccc(S(=O)(=O)N2CCOCC2)cc1C(=O)O`, 148 to 152 °C.
In the case of `Cc1cc(C(=O)O)cc(S(=O)(=O)Cl)c1F` it was 193 to 195 °C; in that of `CN1CCC(N(C)c2ccc(N)cc2)CC1`, 62 to 64 °C.
In the case of `Cc1nn(-c2ccccc2)c(C)c1N` it was 61 to 63 °C.
As for `O=C(O)c1ccc(Sc2ccccn2)cc1`, the melting point fell in the range of 179 to 181 °C.
In the case of `O=C(O)c1nn(-c2c(Cl)cc(Cl)cc2Cl)cc1O` it was 194 to 196 °C; in that of `N#CCc1coc(-c2ccccc2)n1`, 87 to 89 °C; in that of `O=C(O)CNC(=O)c1cc(F)cc(F)c1`, 154 to 156 °C.
In the case of `O=C(O)c1cc(-c2cccnc2)nc2ccccc12` it was 323 to 325 °C; in that of `COc1ccc(C(N)=NO)c(OC)c1`, 129 to 131 °C; in that of `Nc1cc2c(nn1)CCNC2`, 219 to 221 °C.
In the case of `Cc1cc(C(=O)O)c(C)n1-c1ccccc1Br` it was 164 to 166 °C; in that of `CCc1ccc(Nc2nnc(S)s2)cc1`, 151 to 153 °C.
The molecule `COC(=O)COc1ccc([N+](=O)[O-])c2ccccc12` showed a melting point of 141 to 143 °C.
On to `Cc1cccc(NC(=O)N2CCNCC2)c1`, for which the melting point was in the range of 109 to 111 °C.
`N#CCC(=O)NCC1CCCO1` (stereo unspecified) displayed a melting point of 90 to 94 °C.
As for `C#CCNS(=O)(=O)c1ccccc1`, the melting point was in the range of 60 to 62 °C.
Molecule `Fc1cccc(CBr)c1Cl` registered a melting point of 39 to 41 °C.
In the case of `Cc1ccc(-n2cc(C(=O)O)c(C(C)(C)C)n2)cc1` it was 218 to 220 °C; in that of `COc1ccc(-c2csc(N)n2)cc1C`, 179 to 181 °C; in that of `CNS(=O)(=O)CC(=O)O`, 119 to 121 °C.
In the case of `NC(=O)CN(Cc1ccccc1)c1cccc(N)c1` it was 169 to 171 °C; in that of `CN(C)c1ccc(NC(=S)NN)cc1`, 167 to 169 °C.
`O=c1nc(S)[nH]nc1-c1cc(Cl)sc1Cl` showed a melting point of 203 to 205 °C.
`Cc1c(C(=O)O)oc2c1C(=O)CCC2` yielded a melting point of 227 to 229 °C.
In the case of `NC(=S)Nc1ccc(Cl)nc1` it was 182 to 184 °C; in that of `CCCn1c(C)cc(/C=C(\C#N)C(=O)O)c1C`, 199 to 201 °C; in that of `CC(N)Cn1cnc2c(cnn2C)c1=O` (stereo unspecified), 148 to 150 °C.
Regarding `Nc1ncc(Cc2ccc(F)c(F)c2)s1`, the melting point is 97 to 99 °C.
In the case of `O=C(O)C1C2C=CC(C2)C1C(=O)N1CCN(CCO)CC1` (stereo unspecified) it was 192 to 194 °C.
In the case of `O=C(O)CC1=NNC(=O)C1` it was 195 to 197 °C.
In the case of `O=C(O)c1oc2cc(Cl)ccc2c1-c1ccccc1` it was 229 to 231 °C; in that of `O=C(O)c1ccc(=O)n(-c2ccc(F)cc2)c1`, 299 to 301 °C.
`O=C(O)C(Cc1ccccc1)NC(=O)C12CC3CC(CC(C3)C1)C2` (stereo unspecified) showed a melting point of 162 to 164 °C.
As for `Cc1cc(=O)nc2sc(N3CCNCC3)nn12`, the melting point lay within 234 to 236 °C.
In the case of `NCc1cn(-c2ccccc2)nc1-c1ccccc1`, the melting point is 61 to 63 °C.
The molecule `Nc1cc(-c2cc(Br)ccc2Cl)[nH]n1` registered a melting point of 158 to 160 °C.
In the case of `Cn1c(=O)c2c(n(Cc3ccccc3)c1=O)NC(=O)C2CC(=O)O` (stereo unspecified) it was 243 to 247 °C.
In the case of `CC(C)n1c(=O)[nH]c2cc(C(=O)O)ccc2c1=O`, the melting point lay within 332 to 334 °C.
Molecule `CCN(CC)S(=O)(=O)c1ccc(N2CCC(C(=O)O)CC2)c([N+](=O)[O-])c1` had a melting point of 204 to 206 °C.
In the case of `O=C(O)C1CNCc2ccccc21` (stereo unspecified) it was 233 to 235 °C; in that of `O=C(O)CSc1nccs1`, 151 to 153 °C; in that of `CCN(CC)S(=O)(=O)c1ccc(C(=O)NCC(=O)O)cc1`, 143 to 145 °C.
In the case of `CCOC(=O)c1c[nH]n2c1nc(=O)c1ccccc12` it was 201 to 203 °C; in that of `CNc1ncnc2ccsc12`, 179 to 181 °C.
In turn, `COc1ccc(C(=O)C(F)(F)F)cc1OC` registered a melting point of 77 to 79 °C.
In the case of `O=Cc1cc(C(=O)O)co1` it was 165 to 167 °C.
In the case of `O=C(O)Cc1cccc(OCc2ccncc2)c1` it was 138 to 140 °C; in that of `NN=c1ccc(C(N)=O)n[nH]1`, 251 to 253 °C.
`O=[N+]([O-])c1cc(S(=O)(=O)Nc2nc3ccccc3nc2Cl)ccc1Cl` showed a melting point of 180 to 182 °C.
In turn, `CCOC(C)c1nc(C(=O)O)cs1` (stereo unspecified) yielded a melting point of 61 to 63 °C.
Turning to `COc1ccnc(N)c1`, the melting point was 99 to 101 °C.
In the case of `O=Cc1cnn(-c2ccc(F)cc2)c1` it was 120 to 122 °C; in that of `CCN1CCc2nc(N)sc2C1`, 71 to 80 °C.
`CCC(C)n1ncc(C(=O)O)c1C1CC1` (stereo unspecified): the melting point was 116 to 118 °C.
For `CC(Cl)C(=O)NC(=O)Nc1ccccc1F` (stereo unspecified), the melting point was 135 to 137 °C.
In the case of `O=C(O)CC1=NN(c2ccc(Cl)cc2Cl)C(=O)C1` it was 179 to 181 °C; in that of `Cc1c(F)cc(C#N)cc1[N+](=O)[O-]`, 75 to 77 °C.
`O=C(NCc1ccccc1)OCC(F)(F)F` showed a melting point of 62 to 66 °C.
In the case of `Nc1cc(CCc2ccccc2)[nH]n1` it was 58 to 60 °C; in that of `OCc1cc2ccc(Br)cc2[nH]1`, 115 to 117 °C.
As for `NCc1nnc2n1CCC2`, the melting point was 20 to 22 °C.
In the case of `COC(=O)c1ccc(N)cc1Cl` it was 107 to 109 °C.
`CN(c1cc(C(=O)O)ccn1)C1CCCC1` had a melting point of 179 to 181 °C.
Regarding `COc1ccc(C(=O)NCC(=O)O)cc1`, the melting point was 165 to 167 °C.
In the case of `N#Cc1ccccc1OCc1ccccc1` it was 70 to 72 °C; in that of `O=C(O)c1cc(-c2cccc(Cl)c2)no1`, 182 to 184 °C; in that of `O=C1CCCSc2ccc(Cl)cc21`, 49 to 51 °C.
In turn, `FC(F)(F)c1ccc2nnc(C3CCCNC3)n2c1` (stereo unspecified) returned a melting point of 226 to 228 °C.
In the case of `CCOc1cc(C(=O)O)ccc1OCC(=O)N1CCCCC1` it was 129 to 131 °C; in that of `CCc1cccc2c(C=O)c[nH]c12`, 99 to 101 °C.
In the case of `CCc1ccc(C(=O)O)cc1CC` it was 100 to 102 °C; in that of `CCOC(=O)Nc1ccc2c(CCl)cc(=O)oc2c1`, 247 to 249 °C; in that of `O=C1CSc2ccncc2N1`, 203 to 205 °C.
In the case of `Nc1cccc2c1C(=O)N(Cc1ccccc1)C2=O` it was 147 to 149 °C.
The molecule `COc1ccc(CN2CCNCC2)cc1OC` showed a melting point of 27 to 40 °C.
`COc1ccc(Cl)cc1CC(=O)O` returned a melting point of 131 to 133 °C.
In the case of `CCCC1NC(=O)NC1=O` (stereo unspecified) it was 132 to 136 °C.
In the case of `Cc1c(C(=O)O)cccc1S(=O)(=O)Cl` it was 169 to 171 °C.
Molecule `Clc1cc2nnc(-c3ccccc3)n2cn1` gave a melting point of 155 to 157 °C.
Molecule `ClC(Cl)(Cl)C(c1ccc(Br)cc1)c1ccc(Br)cc1` returned a melting point of 144 to 146 °C.
`CC(N)(C#N)Cn1cc(Br)cn1` (stereo unspecified) returned a melting point of 60 to 62 °C.
